{
  "source": "PubChem BioAssay AID2060486",
  "about": "(Molecular Pharmacology Branch, DTP, NCI, 2025)",
  "tested_on": "IGROV1 complex spheroids (HUVEC, MSC), viability % test/control",
  "experiment": "Anticancer human tumor IGROV1 cell line growth inhibition [GQUAD];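 also: spheroids exposed to compounds for 7 days before readout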",
  "details": "for IC50: curve of first compound; for viability, T/C: stronger effect = lower value",
  "from_the_text": "DNA G-quadruplex Stabilizer Agents in Combinations in Complex Spheroids\nA high-throughput screen of multi-cell type tumor spheroids was designed to identify active combinations of DNA G-quadruplex stabilizer agents and targeted small molecules. Complex spheroids include a stromal component modeled by human endothelial cells (HUVEC) and fibroblasts modeled by human mesenchymal stem cells (MSCs). The concentration ranges selected for each drug and investigational agent were based upon clinically achievable concentrations if the clinical Cmax of the agent was known.\nCompounds. The drugs and investigational agents: pidnarulex (CX-5461; NSC782164), APTO-253 (NSC789042), BRACO-19 (NSC847499), peposertib (NSC802822), ceralasertib (NSC780249), elimusertib (NSC800525), camonsertib (NSC841442), AZD-1390 (NSC803789), olaparib (NSC753686), talazoparib (NSC767125), ART-558 (NSC835418), sotorasib (NSC818433), MRTX-1133 (NSC836407), SN-38 (NSC673596), topotecan (NSC609699), etoposide (NSC141540), doxorubicin (NSC123127), gemcitabine (NSC613327), 5-fluorouracil (NSC19893), paclitaxel (NSC125973), vemurafenib (NSC761431), panobinostat (NSC761190), R-306465 (JNJ-16241199; NSC773264), adavosertib (NSC754352), TP-3654 (NSC805149), carboplatin (NSC241240), KSQ-4279 (NSC840948), and staurosporine (NSC755774) were obtained from the National Cancer Institute (NCI) Developmental Therapeutics Program Chemical Repository (34). The FDA-approved anticancer drug set is available from the NCI Developmental Therapeutics Program. […] The stock solutions were prepared in dimethyl sulfoxide (DMSO, Sigma-Aldrich, St. Louis, MO, cat. D2650) at 800-fold the tested concentration and stored at -70 degrees C prior to their use. All drugs and investigational agents were tested over a range starting from a high concentration at or near the clinical Cmax and decreasing in half-log increments. If the clinical Cmax for an agent had not been determined, the highest concentration tested was 10 microM.\n2.3 Cell Culture. All cells were maintained in an incubator at 37 degrees C and 5% CO2 with 95% humidity. The PDC lines were cultured according to standard operating procedures established by the NCI PDMR. All PDCs were thawed and cultured in Matrigel-coated flasks prepared with a working solution of 1X Ham's F-12 nutrient mix, without supplementation (Invitrogen, cat. 11765054), 100 U/mL penicillin-streptomycin (Invitrogen, cat. 15140122), and 2.5% Matrigel (Corning Inc., cat. 354248) for the first three passages. The 857933-349-R-J2-PDC line was cultured in 6C/Colon 1B media, which includes advanced DMEM/F-12 (Thermo Fisher Scientific, cat. 12634028), 10 mM HEPES (Thermo Fisher Scientific, cat. 15630080), 1X GlutaMAX supplement (Thermo Fisher Scientific, cat. 35050061), 0.1 mg/mL primocin (InvivoGen, cat. ant-pm-2), 10% defined fetal bovine serum, heat inactivated (HyClone Laboratories Inc., cat. SH30070.03HI), 50% L-WRN conditioned media (ATCC, cat. CRL-3276), 1.25 mM N-Acetyl-L-cysteine (Sigma-Aldrich, cat. A9165), 10 mM nicotinamide (Sigma-Aldrich, cat. N0636), 1X B-27 supplement (Thermo Fisher Scientific, cat. 17504044), 1X N-2 supplement (Thermo Fisher Scientific, cat. 17502048), 10 microM Y-27632 dihydrochloride (Tocris Bioscience, cat. 1254), and 50 ng/mL human EGF recombinant protein (Thermo Fisher Scientific, cat. PHG0311). The 485176-168-R4-J1-PDC line was cultured in Panc media, which includes all 6C/Colon 1B media components plus 100 ng/mL human FGF-10 (Thermo Fisher Scientific, cat. 100-26), 500 nM SB-431542 (Selleckchem, cat. S1067), and gastrin (Tocris, cat. 3006).\n[…]",
  "data": [
    {"smiles": "CC(C)(O)C1CCC(Nc2ccc3ncc(-c4cccc(C(F)(F)F)c4)n3n2)CC1", "note": "(configuration not stated) + Cc1cnc(CNC(=O)c2c(=O)c3ccc(N4CCCN(C)CC4)nc3n3c2sc2ccccc23)cn1", "values": [
      {"measurement": "IC50", "setting": "second compound 0.0316 µM", "value": 429, "unit": "nM"},
      {"measurement": "IC50", "setting": "second compound 0.1 µM", "value": "< 31.6", "unit": "nM"},
      {"measurement": "IC50", "setting": "second compound 0.316 µM", "value": "< 31.6", "unit": "nM"},
      {"measurement": "IC50", "setting": "second compound 1 µM", "value": "< 31.6", "unit": "nM"},
      {"measurement": "IC50", "setting": "second compound 3.16 µM", "value": "< 31.6", "unit": "nM"},
      {"measurement": "IC50", "setting": "second compound 10 µM", "value": "< 31.6", "unit": "nM"},
      {"measurement": "viability, T/C", "setting": "second compound 0.0316 µM, first compound 0.0316 µM", "value": 71.3, "unit": "%"},
      {"measurement": "viability, T/C", "setting": "second compound 0.0316 µM, first compound 0.1 µM", "value": 68.4, "unit": "%"},
      {"measurement": "viability, T/C", "setting": "second compound 0.0316 µM, first compound 0.316 µM", "value": 55.7, "unit": "%"},
      {"measurement": "viability, T/C", "setting": "second compound 0.0316 µM, first compound 1 µM", "value": 34, "unit": "%"},
      {"measurement": "viability, T/C", "setting": "second compound 0.0316 µM, first compound 3.16 µM", "value": 20.2, "unit": "%"},
      {"measurement": "viability, T/C", "setting": "second compound 0.0316 µM, first compound 10 µM", "value": 16.9, "unit": "%"},
      {"measurement": "viability, T/C", "setting": "second compound 0.1 µM, first compound 0.0316 µM", "value": 35.6, "unit": "%"},
      {"measurement": "viability, T/C", "setting": "second compound 0.1 µM, first compound 0.1 µM", "value": 32.7, "unit": "%"},
      {"measurement": "viability, T/C", "setting": "second compound 0.1 µM, first compound 0.316 µM", "value": 33.9, "unit": "%"},
      {"measurement": "viability, T/C", "setting": "second compound 0.1 µM, first compound 1 µM", "value": 26, "unit": "%"},
      {"measurement": "viability, T/C", "setting": "second compound 0.1 µM, first compound 3.16 µM", "value": 14.1, "unit": "%"},
      {"measurement": "viability, T/C", "setting": "second compound 0.1 µM, first compound 10 µM", "value": 10.2, "unit": "%"},
      {"measurement": "viability, T/C", "setting": "second compound 0.316 µM, first compound 0.0316 µM", "value": 24.9, "unit": "%"},
      {"measurement": "viability, T/C", "setting": "second compound 0.316 µM, first compound 0.1 µM", "value": 25.8, "unit": "%"},
      {"measurement": "viability, T/C", "setting": "second compound 0.316 µM, first compound 0.316 µM", "value": 17.4, "unit": "%"},
      {"measurement": "viability, T/C", "setting": "second compound 0.316 µM, first compound 1 µM", "value": 20.5, "unit": "%"},
      {"measurement": "viability, T/C", "setting": "second compound 0.316 µM, first compound 3.16 µM", "value": 14.8, "unit": "%"},
      {"measurement": "viability, T/C", "setting": "second compound 0.316 µM, first compound 10 µM", "value": 11.4, "unit": "%"},
      {"measurement": "viability, T/C", "setting": "second compound 1 µM, first compound 0.0316 µM", "value": 17, "unit": "%"},
      {"measurement": "viability, T/C", "setting": "second compound 1 µM, first compound 0.1 µM", "value": 17.6, "unit": "%"},
      {"measurement": "viability, T/C", "setting": "second compound 1 µM, first compound 0.316 µM", "value": 16.2, "unit": "%"},
      {"measurement": "viability, T/C", "setting": "second compound 1 µM, first compound 1 µM", "value": 16.5, "unit": "%"},
      {"measurement": "viability, T/C", "setting": "second compound 1 µM, first compound 3.16 µM", "value": 9.63, "unit": "%"},
      {"measurement": "viability, T/C", "setting": "second compound 1 µM, first compound 10 µM", "value": 7.48, "unit": "%"},
      {"measurement": "viability, T/C", "setting": "second compound 3.16 µM, first compound 0.0316 µM", "value": 12.5, "unit": "%"},
      {"measurement": "viability, T/C", "setting": "second compound 3.16 µM, first compound 0.1 µM", "value": 9.36, "unit": "%"},
      {"measurement": "viability, T/C", "setting": "second compound 3.16 µM, first compound 0.316 µM", "value": 10.4, "unit": "%"},
      {"measurement": "viability, T/C", "setting": "second compound 3.16 µM, first compound 1 µM", "value": 10.4, "unit": "%"},
      {"measurement": "viability, T/C", "setting": "second compound 3.16 µM, first compound 3.16 µM", "value": 7.96, "unit": "%"},
      {"measurement": "viability, T/C", "setting": "second compound 3.16 µM, first compound 10 µM", "value": 1.27, "unit": "%"},
      {"measurement": "viability, T/C", "setting": "second compound 10 µM, first compound 0.0316 µM", "value": 10, "unit": "%"},
      {"measurement": "viability, T/C", "setting": "second compound 10 µM, first compound 0.1 µM", "value": 9.42, "unit": "%"},
      {"measurement": "viability, T/C", "setting": "second compound 10 µM, first compound 0.316 µM", "value": 9.42, "unit": "%"},
      {"measurement": "viability, T/C", "setting": "second compound 10 µM, first compound 1 µM", "value": 5.73, "unit": "%"},
      {"measurement": "viability, T/C", "setting": "second compound 10 µM, first compound 3.16 µM", "value": 8.46, "unit": "%"},
      {"measurement": "viability, T/C", "setting": "second compound 10 µM, first compound 10 µM", "value": 0.12, "unit": "%"}
    ]}
  ]
}
